Consider two molecules from US7605168B2 (Plexxikon, Inc., priority 2004, dated 2009).

Usually IC50 stands for the concentration that gives 50% inhibition. Lower therefore signals higher potency.

Assay [1] deals with T1, PDE4B: catalytic domain of human PDE4B from S152-S528 (Homo sapiens, UniProt Q07343).
T1 construct: The catalytic domain of human PDE4B from S152-S528; His6 (N, cleaved yes); thrombin cleavage site (N, cleaved yes); made in house; host or cells: E. coli BL21 (DE3) RIL
Description: PDE4 IC50 determination by Scintillation Proximity Assay (SPA), PDE4B catalytic domain. The note with it: [3H]cAMP SPA, 30 min at 30° C. The format is biochemical. Summed up:
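Human PDE4B catalytic domain (80 ng/ml) hydrolysed [3H]cAMP in 50 mM Tris pH 7.5, 8.3 mM MgCl, 1.7 mM EGTA, 0.01% BSA for 30 min at 30 °C. Reaction was stopped with yttrium silicate SPA beads in 18 mM ZnSO4, and bound [3H]AMP was counted by scintillation. IC50 came from non-linear regression.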
In general terms: Scintillation proximity formats need no separation of bound from free tracer.

Assay [2] addresses T2, PDE4D: catalytic domain S316-V692 (Homo sapiens, UniProt Q08499).
T2 construct: pET15S PDE4D S316-V692-X; His6 (N, cleaved yes); thrombin cleavage site (N, cleaved yes); made in house; host or cells: E. coli BL21 (DE3) RIL
The experiment in a line: PDE4 IC50 determination by Scintillation Proximity Assay (SPA), PDE4D catalytic domain. To be noted: [3H]cAMP SPA, 30 min at 30° C. Format: biochemical.

T1 sequence (Q07343 324-700): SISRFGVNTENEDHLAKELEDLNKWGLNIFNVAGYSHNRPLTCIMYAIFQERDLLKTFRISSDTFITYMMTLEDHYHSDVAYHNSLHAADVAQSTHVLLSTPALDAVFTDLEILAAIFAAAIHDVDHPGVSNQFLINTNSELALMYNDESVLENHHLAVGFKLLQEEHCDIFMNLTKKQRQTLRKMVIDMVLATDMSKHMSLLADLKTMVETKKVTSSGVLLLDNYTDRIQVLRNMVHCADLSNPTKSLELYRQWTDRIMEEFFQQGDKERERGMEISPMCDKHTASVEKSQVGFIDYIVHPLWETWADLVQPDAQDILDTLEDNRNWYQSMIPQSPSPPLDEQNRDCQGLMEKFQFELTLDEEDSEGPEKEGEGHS
T2 sequence (Q08499 380-756): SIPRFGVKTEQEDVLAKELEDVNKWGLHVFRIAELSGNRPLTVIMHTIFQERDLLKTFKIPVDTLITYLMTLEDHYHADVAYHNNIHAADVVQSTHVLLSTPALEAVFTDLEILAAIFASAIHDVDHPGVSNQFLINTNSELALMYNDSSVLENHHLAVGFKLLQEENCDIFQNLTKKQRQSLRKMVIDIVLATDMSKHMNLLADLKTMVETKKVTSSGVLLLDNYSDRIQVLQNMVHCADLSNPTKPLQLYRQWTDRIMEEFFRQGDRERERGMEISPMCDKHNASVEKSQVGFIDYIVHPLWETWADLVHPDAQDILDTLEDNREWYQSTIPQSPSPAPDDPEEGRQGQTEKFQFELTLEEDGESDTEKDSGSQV

`CCOc1ccc2ccccc2c1C(=O)n1cc(-c2ccc(OC)c(OC)c2)c2cccnc21` [Compound 52, [3-(3,4-Dimethoxy-phenyl)-pyrrolo[2,3-b]pyridin-1-yl]-(2-ethoxy-naphthalen-1-yl)-methanone]: the half-maximal inhibitory concentration (IC50) was less than 10 µM in assay [1] and no more than 10 µM in assay [2].

For the molecule `CCOc1ccccc1C(=O)n1cc(-c2ccc(OC)c(OC)c2)c2cccnc21` [Compound 61, [3-(3,4-Dimethoxy-phenyl)-pyrrolo[2,3-b]pyridin-1-yl]-(2-ethoxy-phenyl)-methanone-amide], the IC50 was less than 10 µM in assay [1] and no more than 10 µM in assay [2].
